Test results published in ChEMBL document CHEMBL5512692, “Colloidal Aggregation Confounds Cell-Based Covid-19 Antiviral Screens” (J Med Chem, 2024).
The source made the active and inactive calls. The calls are words filed in the database; no cut-off is given here.

What was measured:
[1] = Aggregation property of compound in 50 mM KPi buffer at pH 7 assessed as critical aggregation concentration by DLS assay; assay type: physicochemical
[2] = Aggregation property of compound in DMEM media assessed as critical aggregation concentration by DLS assay; assay type: physicochemical
[3] = Inhibition of porcine heart MDH using oxaloacetic acid as substrate preincubated for 5 mins followed by substrate and […] addition and measured for 80 sec by absorbance based analysis; set-up: species or system Sus scrofa
[4] = Cytotoxicity against human A549-hACE2-TMPRSS2 assessed as reduction in cell viability incubated for 24 hrs by MTT assay; assay type: toxicity, cell-based; conditions: a549-hace2-tmprss2, 24 h
[5] = Absorption property of compound in DMEM media at 100 to 200 uM at 500 to 700 nm by luciferase assay; assay type: physicochemical; conditions: dose 100-200 µM
Sus scrofa [6] = species on record: Sus scrofa; experiment: Inhibition of porcine heart MDH using oxaloacetic acid as substrate assessed as enzyme recovery by measuring residual activity at approximately IC90 preincubated for 5 mins in presence of triton X-0.01% followed by substrate and […] addition and measured for 80 sec by absorbance based analysis relative to control; conditions: time 380.0 sec
Sus scrofa [7] = species on record: Sus scrofa; experiment: Inhibition of porcine heart MDH using oxaloacetic acid as substrate assessed as enzyme recovery by measuring residual activity at approximately IC90 preincubated for 5 mins in presence of 10 mg/ml BSA followed by enzyme addition and measured after 5 mins by absorbance based analysis relative to control; conditions: time 10.0 min
SARS-CoV-2 [8] = experiment: Antiviral activity against SARS CoV-2 spike-pseudotyped lentivirus infected in human A549-hACE2-TMPRSS2 cells assessed as inhibition of viral entry incubated for 24 hrs in absence of BSA by luciferase reporter assay; assay type: functional, organism-based; conditions: Severe acute respiratory syndrome coronavirus 2, A549-hACE2-TMPRSS2, 24 h
SARS-CoV-2 [9] = experiment: Antiviral activity against SARS CoV-2 spike-pseudotyped lentivirus infected in human A549-hACE2-TMPRSS2 cells assessed as inhibition of viral entry preincubated with 10 mg/ml BSA for 5 mins followed by viral infection and further incubated for 24 hrs by luciferase reporter assay; assay type: functional, organism-based; conditions: Severe acute respiratory syndrome coronavirus 2, A549-hACE2-TMPRSS2
SARS-CoV-2 [10] = experiment: Antiviral activity against luciferase independent SARS CoV-2 spike-pseudotyped lentivirus infected in human A549-hACE2-TMPRSS2 cells assessed as inhibition of viral entry by measuring reduction in luciferase activity incubated for 24 hrs by luciferase reporter assay; assay type: functional, organism-based; conditions: Severe acute respiratory syndrome coronavirus 2
SARS-CoV-2 [11] = experiment: Antiviral activity against luciferase independent SARS CoV-2 spike-pseudotyped lentivirus infected in human A549-hACE2-TMPRSS2 cells assessed as inhibition of viral entry measured after 24 hrs before centrifugation by luciferase reporter assay; assay type: functional, organism-based; conditions: Severe acute respiratory syndrome coronavirus 2, A549-hACE2-TMPRSS2
Sus scrofa [12] = species on record: Sus scrofa; experiment: Inhibition of porcine heart MDH using oxaloacetic acid as substrate at approximately IC90 spin-down for 1 hr followed by enzyme addition and measured after 5 mins by absorbance based analysis; conditions: time 65.0 min
SARS-CoV-2 [13] = experiment: Antiviral activity against luciferase independent SARS CoV-2 spike-pseudotyped lentivirus infected in human A549-hACE2-TMPRSS2 cells assessed as inhibition of viral entry at 31.6 to 63.3 uM compound spin-down for 1 hr followed by viral infection and measured after 24 hrs by luciferase reporter assay; assay type: functional, organism-based; conditions: Severe acute respiratory syndrome coronavirus 2, dose 31.6-63.3 µM, time 25.0 hrs
SARS-CoV-2 [14] = experiment: Antiviral activity against SARS-CoV-2; assay type: functional, organism-based; conditions: Severe acute respiratory syndrome coronavirus 2
[15] = target: Spike glycoprotein (Severe acute respiratory syndrome coronavirus 2) (UniProt P0DTC2); experiment: Binding affinity to Alex-fluor-647 labeled SARS-CoV-2 spike protein assessed as protein-colloid complex formation by measuring fluorescence puncta formation incubated for 5 mins by confocal microscopic analysis
[16] = target: Spike glycoprotein (Severe acute respiratory syndrome coronavirus 2) (UniProt P0DTC2); experiment: Binding affinity to Alex-fluor-647 labeled SARS-CoV-2 spike protein assessed as protein-colloid complex formation by measuring fluorescence puncta formation incubated for 5 mins in presence of 0.025% Tween-80 by confocal microscopic analysis
[17] = target: Spike glycoprotein (Severe acute respiratory syndrome coronavirus 2) (UniProt P0DTC2); experiment: Binding affinity to Alex-fluor-647 labeled SARS-CoV-2 spike protein assessed as protein-colloid complex formation by measuring fluorescence puncta formation compound preincubated with 10 mg/ml BSA for 5 mins followed by protein addition and further incubated for 5 mins by confocal microscopic analysis

Compound	CAC [1] [µM]	CAC [2] [µM]	IC50 [3] [µM]	Activity [4]	Activity [5]	Activity (Sus scrofa [6]) [%]	Activity (Sus scrofa [7]) [%]	EC50 (SARS-CoV-2 [8]) [µM]	EC50 (SARS-CoV-2 [9]) [µM]	Activity (SARS-CoV-2 [10])	EC50 (SARS-CoV-2 [11]) [µM]	inhibition (Sus scrofa [12])	Activity (SARS-CoV-2 [13])	EC50 (SARS-CoV-2 [14]) [µM]	Activity [15]	Activity [16]	Activity [17]
CC1(C)Cc2c(-c3ccccc3)c(-c3ccc(Cl)cc3)c(CC(=O)O)n2C1 [LICOFELONE]	54	5.5	23	Toxic	Not Active	–	–	–	–	–	–	–	–	–	–	–	–
CC(C)=CCc1c(O)ccc(C(=O)/C=C/c2ccc(O)cc2)c1O [ISOBAVACHALCONE]	6.1	63	36	Toxic	Not Active	109	108	–	–	–	–	–	–	–	–	–	–
CNC(=O)c1cc(Oc2ccc(NC(=O)Nc3ccc(Cl)c(C(F)(F)F)c3)cc2)ccn1 [SORAFENIB]	–	–	–	–	–	–	–	0.41	21	Active	0.27	–	–	–	–	–	–
C=C(C)[C@@H]1CCC(C)=C[C@H]1c1c(O)cc(CCCCC)c(C(=O)O)c1O [CANNABIDIOLIC ACID]	61	14	47	Toxic	Not Active	81.3	61	–	–	–	–	Active	Active	–	–	–	–
O=c1cc(-c2ccc(O)c(-c3c(O)cc(O)c4c(=O)cc(-c5ccc(O)cc5)oc34)c2)oc2cc(O)cc(O)c12 [AMENTOFLAVONE]	25	100	6.1	–	–	93	78	–	–	–	–	–	–	–	–	–	–
CC(C)C(=O)OCC(=O)[C@@]12O[C@H](C3CCCCC3)O[C@@H]1C[C@H]1[C@@H]3CCC4=CC(=O)C=C[C@]4(C)[C@H]3[C@@H](O)C[C@@]12C [CICLESONIDE]	8.1	4.2	10	–	Not Active	66.1	57	–	–	–	–	–	–	20.5	–	–	–
Cc1cc(O)c2c(=O)c3c(O)cc(O)c4c5c(O)cc(O)c6c(=O)c7c(O)cc(C)c8c1c2c(c34)c(c78)c65 [HYPERICIN]	3.3	3.7	0.3	–	Not Active	90	99	84.4	–	–	–	–	–	1.24	–	–	–
C=C[C@@](C)(/C=C/c1ccc(O)cc1)CCC=C(C)C [BAKUCHIOL]	6.2	2.5	12	–	Not Active	111	77	5.35	51.5	Active	–	–	–	–	–	–	–
Oc1ccc(-c2[o+]c3cc(O)cc(O)c3cc2O)cc1.[Cl-] [PELARGONIDIN CHLORIDE]	79	56	8.1	–	Not Active	83	130	–	–	–	–	–	–	50	–	–	–
COc1c(O)cc2oc(-c3ccccc3)cc(=O)c2c1O [OROXYLIN A]	–	–	73	–	Not Active	42	33	–	–	–	–	–	Active	20	–	–	–
O=c1c(O)c(-c2ccc(O)c(O)c2)oc2cc(O)cc(O)c12 [QUERCETIN]	62	100	3.3	–	Not Active	61	108	–	–	–	–	–	–	–	–	–	–
CCCCCc1cc(O)c(C/C=C(\C)CCC=C(C)C)c(O)c1C(=O)O [CANNABIGEROLIC ACID]	12	162	29	Toxic	Not Active	95.7	68	1.21	–	Active	–	Active	Active	–	Active	inactive	inactive
Cc1cc(O)c2c(c1)C(=O)c1cc(O)cc(O)c1C2=O [EMODIN]	8.6	63.1	39	–	Not Active	–	67	2.21	–	Active	2.22	–	–	25	Active	inactive	inactive
CCOC(=O)c1c(CSc2ccccc2)n(C)c2cc(Br)c(O)c(CN(C)C)c12 [UMIFENOVIR]	58	28	8.6	–	Not Active	58	43	0.26	25	Active	0.44	–	–	–	–	–	–
C[C@]12CC[C@@H]3c4ccc(O)cc4C[C@@H](CCCCCCCCC[S+]([O-])CCCC(F)(F)C(F)(F)F)[C@H]3[C@@H]1CC[C@@H]2O (stereo partly drawn) [FULVESTRANT]	–	–	–	–	–	–	–	–	–	Active	0.19	–	–	–	–	–	–
O=C(O[C@@H]1Cc2c(O)cc(O)cc2O[C@@H]1c1cc(O)c(O)c(O)c1)c1cc(O)c(O)c(O)c1 [EPIGALOCATECHIN GALLATE]	–	–	–	–	–	63.3	53	35.1	–	–	–	–	Active	5.38	–	–	–
O=c1cc(-c2ccc(O)c(O)c2)oc2cc(O)cc(O)c12 [LUTEOLIN]	83	28	15	–	Not Active	89	107	–	–	–	–	–	–	10	–	–	–
